Measured values taken from ChEMBL document CHEMBL1152446, “Identification of an orally efficacious matrix metalloprotease 12 inhibitor for potential treatment of asthma” (J Med Chem, 2009).
The source made the active and inactive calls. The calls are words filed in the database; no cut-off is given here.

Columns and labels:
Mus musculus [1] = test: Inhibition of human recombinant MMP12-induced ear-edema in C57BL/6 mouse assessed as decrease in ear edema at 10 mg/kg, po bid administered 2 hrs post challenge; format: functional; conditions: C57BL/6, 2 h
Ovis aries [2] = test: Inhibition of EAR phase of bronchoconstrictive in Ascaris suum challenged sheep asthma model at 10 mg/kg, po twice the day prior to allergen challenge and third dose 1 hr prior to allergen challenge; format: functional, organism-based; design: dose 10 mg/kg; conditions: Lung
Stromelysin-1 = Stromelysin-1 (Homo sapiens, UniProt P08254); test: Inhibition of human MMP3
Chain of Stromelysin-1 (P08254 whole entry): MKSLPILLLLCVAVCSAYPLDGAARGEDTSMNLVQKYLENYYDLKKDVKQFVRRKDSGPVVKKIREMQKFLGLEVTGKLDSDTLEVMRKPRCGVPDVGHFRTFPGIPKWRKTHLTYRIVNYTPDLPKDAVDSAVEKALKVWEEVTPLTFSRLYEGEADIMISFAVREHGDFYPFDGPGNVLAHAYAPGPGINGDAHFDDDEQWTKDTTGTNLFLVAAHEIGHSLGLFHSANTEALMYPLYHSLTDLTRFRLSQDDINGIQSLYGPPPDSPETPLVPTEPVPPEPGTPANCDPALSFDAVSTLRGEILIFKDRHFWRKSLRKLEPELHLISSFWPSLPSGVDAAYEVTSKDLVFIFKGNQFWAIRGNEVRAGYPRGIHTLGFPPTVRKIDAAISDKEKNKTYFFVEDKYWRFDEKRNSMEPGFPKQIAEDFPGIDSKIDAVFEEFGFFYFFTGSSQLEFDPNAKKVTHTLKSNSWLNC

[3] = Inhibition of sheep MMP12; design: species or system Ovis aries
in vitro [4] = conditions: rat, liver microsomes
Matrilysin = Matrilysin (Homo sapiens, UniProt P09237); test: Inhibition of human MMP7
Cytochrome P450 2C9 = Cytochrome P450 2C9 (Homo sapiens, UniProt P11712); test: Inhibition of CYP2C9; format: ADME
Cytochrome P450 2D6 = Cytochrome P450 2D6 (Homo sapiens, UniProt P10635); test: Inhibition of CYP2D6; format: ADME
[5] = molecular target: Matrix metalloproteinase-9 (Homo sapiens, UniProt P14780); test: Inhibition of human MMP9
Chain of Matrix metalloproteinase-9 (P14780 whole entry, the tested form may be a part): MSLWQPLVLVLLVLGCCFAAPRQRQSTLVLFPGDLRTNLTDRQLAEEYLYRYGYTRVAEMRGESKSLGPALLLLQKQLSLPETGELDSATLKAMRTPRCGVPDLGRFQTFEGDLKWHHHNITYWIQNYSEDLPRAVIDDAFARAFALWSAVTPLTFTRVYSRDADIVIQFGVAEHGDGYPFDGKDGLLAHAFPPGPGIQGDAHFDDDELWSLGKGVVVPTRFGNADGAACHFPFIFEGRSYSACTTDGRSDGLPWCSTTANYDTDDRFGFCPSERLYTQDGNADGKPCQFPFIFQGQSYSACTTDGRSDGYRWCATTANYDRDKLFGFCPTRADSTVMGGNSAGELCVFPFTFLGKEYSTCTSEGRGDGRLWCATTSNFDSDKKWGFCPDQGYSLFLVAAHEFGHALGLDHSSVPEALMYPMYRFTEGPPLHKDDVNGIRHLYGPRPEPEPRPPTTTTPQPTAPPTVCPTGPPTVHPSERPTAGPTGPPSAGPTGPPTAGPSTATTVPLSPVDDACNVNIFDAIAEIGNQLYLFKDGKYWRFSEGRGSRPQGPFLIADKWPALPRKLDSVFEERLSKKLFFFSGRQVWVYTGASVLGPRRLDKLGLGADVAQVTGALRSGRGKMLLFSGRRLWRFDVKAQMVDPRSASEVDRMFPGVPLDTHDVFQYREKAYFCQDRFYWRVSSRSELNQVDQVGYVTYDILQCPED

[6] = molecular target: Disintegrin and metalloproteinase domain-containing protein 17 (Homo sapiens, UniProt P78536); test: Inhibition of human TACE
Chain of Disintegrin and metalloproteinase domain-containing protein 17 (P78536 whole entry, the tested form may be a part): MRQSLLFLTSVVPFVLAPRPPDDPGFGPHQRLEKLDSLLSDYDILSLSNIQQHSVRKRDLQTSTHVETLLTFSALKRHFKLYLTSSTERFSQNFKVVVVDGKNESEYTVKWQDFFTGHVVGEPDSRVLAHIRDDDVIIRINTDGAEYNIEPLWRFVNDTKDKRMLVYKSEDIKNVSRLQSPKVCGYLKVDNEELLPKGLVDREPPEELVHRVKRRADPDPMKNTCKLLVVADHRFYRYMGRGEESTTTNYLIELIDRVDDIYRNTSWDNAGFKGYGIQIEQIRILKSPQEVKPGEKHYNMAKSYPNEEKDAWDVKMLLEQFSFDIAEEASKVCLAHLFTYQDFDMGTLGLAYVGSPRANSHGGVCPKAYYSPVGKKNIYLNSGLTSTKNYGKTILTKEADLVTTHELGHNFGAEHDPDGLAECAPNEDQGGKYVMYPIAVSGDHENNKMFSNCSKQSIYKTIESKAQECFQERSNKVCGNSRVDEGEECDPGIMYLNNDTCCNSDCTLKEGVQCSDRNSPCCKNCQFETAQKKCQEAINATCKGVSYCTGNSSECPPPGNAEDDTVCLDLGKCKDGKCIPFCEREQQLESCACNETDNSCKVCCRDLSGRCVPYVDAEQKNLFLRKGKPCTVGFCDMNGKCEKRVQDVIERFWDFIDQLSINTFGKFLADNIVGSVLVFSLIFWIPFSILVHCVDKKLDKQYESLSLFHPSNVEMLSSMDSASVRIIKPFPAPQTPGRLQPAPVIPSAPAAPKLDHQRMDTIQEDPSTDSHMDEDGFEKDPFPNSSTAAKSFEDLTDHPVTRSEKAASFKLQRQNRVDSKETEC

[7] = molecular target: 72 kDa type IV collagenase (Homo sapiens, UniProt P08253); test: Inhibition of human MMP2
Chain of 72 kDa type IV collagenase (P08253 whole entry): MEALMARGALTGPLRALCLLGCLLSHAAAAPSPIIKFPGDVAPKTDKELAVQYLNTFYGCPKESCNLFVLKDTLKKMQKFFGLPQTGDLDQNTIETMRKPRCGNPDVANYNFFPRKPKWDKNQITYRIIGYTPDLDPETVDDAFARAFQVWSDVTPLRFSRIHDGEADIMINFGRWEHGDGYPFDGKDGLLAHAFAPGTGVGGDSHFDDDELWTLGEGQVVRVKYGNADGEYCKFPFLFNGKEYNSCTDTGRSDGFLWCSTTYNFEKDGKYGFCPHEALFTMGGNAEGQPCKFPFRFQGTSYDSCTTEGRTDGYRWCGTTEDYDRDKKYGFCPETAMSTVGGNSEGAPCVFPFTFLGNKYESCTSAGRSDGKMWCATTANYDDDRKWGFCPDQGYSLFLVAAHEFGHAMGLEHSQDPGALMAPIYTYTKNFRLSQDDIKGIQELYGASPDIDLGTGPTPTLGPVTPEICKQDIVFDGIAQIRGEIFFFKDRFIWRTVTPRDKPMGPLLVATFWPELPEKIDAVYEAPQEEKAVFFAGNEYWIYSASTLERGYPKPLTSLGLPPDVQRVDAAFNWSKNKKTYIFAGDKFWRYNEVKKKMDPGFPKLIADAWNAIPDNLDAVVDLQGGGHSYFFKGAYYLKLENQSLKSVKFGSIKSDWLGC

Ovis aries [8] = test: Inhibition of carbachol-induced airway hyper-responsiveness in Ascaris suum challenged sheep asthma model at 10 mg/kg, po; format: functional, organism-based; design: dose 10 mg/kg
in vitro [9] = conditions: human, liver microsomes
[10] = molecular target: Voltage-gated inwardly rectifying potassium channel KCNH2 (Homo sapiens, UniProt Q12809); test: Inhibition of human ERG at 10 uM by ion works assay
[11] = molecular target: Macrophage metalloelastase (Rattus norvegicus, UniProt Q63341); test: Inhibition of rat MMP12
Chain of Macrophage metalloelastase (Rattus norvegicus, UniProt Q63341) (Q63341 whole entry): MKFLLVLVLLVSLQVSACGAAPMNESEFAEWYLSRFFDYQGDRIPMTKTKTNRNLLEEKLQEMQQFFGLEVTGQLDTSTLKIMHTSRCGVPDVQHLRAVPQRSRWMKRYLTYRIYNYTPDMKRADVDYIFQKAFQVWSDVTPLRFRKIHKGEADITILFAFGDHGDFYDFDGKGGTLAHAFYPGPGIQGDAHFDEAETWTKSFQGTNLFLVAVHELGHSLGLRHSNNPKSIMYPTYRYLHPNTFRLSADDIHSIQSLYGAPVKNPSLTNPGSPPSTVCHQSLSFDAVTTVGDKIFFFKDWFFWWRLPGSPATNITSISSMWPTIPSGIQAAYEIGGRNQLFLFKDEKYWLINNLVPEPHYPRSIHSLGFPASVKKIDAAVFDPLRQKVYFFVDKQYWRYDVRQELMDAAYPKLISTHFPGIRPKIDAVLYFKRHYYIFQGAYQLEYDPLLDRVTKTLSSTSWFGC

Collagenase 3 = Collagenase 3 (Homo sapiens, UniProt P45452); test: Inhibition of human recombinant MMP13
[12] = Clearance in C57BL/6 mouse at 2 mg/kg, iv; format: ADME, organism-based; design: dose 2 mg/kg, route intravenous; conditions: in vivo
Mus musculus [13] = test: Inhibition of human recombinant MMP12-induced ear-edema in C57BL/6 mouse assessed as decrease in ear edema at 30 mg/kg, po bid administered 2 hrs post challenge; format: functional; conditions: C57BL/6, 2 h
Mus musculus [14] = test: Inhibition of human recombinant MMP12-induced ear-edema in C57BL/6 mouse assessed as decrease in ear edema at 3 mg/kg, po bid administered 2 hrs post challenge; format: functional; conditions: C57BL/6, 2 h
[15] = Cmax in C57BL/6 mouse at 10 mg/kg, po; format: ADME, organism-based; design: dose 10 mg/kg, route oral; conditions: in vivo
Cytochrome P450 3A4 = Cytochrome P450 3A4 (Homo sapiens, UniProt P08684); test: Inhibition of CYP3A4; format: ADME
Chain of Cytochrome P450 3A4 (P08684 whole entry): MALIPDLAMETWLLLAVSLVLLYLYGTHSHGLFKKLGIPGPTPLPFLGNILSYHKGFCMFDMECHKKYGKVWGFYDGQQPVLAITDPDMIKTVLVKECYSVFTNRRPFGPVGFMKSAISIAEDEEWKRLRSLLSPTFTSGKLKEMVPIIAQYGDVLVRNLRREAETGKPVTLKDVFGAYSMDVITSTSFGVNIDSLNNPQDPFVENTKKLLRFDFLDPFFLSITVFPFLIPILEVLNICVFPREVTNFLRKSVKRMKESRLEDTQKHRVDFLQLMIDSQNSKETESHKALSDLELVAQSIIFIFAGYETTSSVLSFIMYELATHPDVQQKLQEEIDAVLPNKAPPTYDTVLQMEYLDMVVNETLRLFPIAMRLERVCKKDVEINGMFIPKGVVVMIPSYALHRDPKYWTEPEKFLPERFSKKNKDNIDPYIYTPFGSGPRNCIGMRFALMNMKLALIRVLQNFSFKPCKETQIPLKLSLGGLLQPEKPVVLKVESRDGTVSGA

Neutrophil collagenase = Neutrophil collagenase (Homo sapiens, UniProt P22894); test: Inhibition of human MMP8
[16] = molecular target: A disintegrin and metalloproteinase with thrombospondin motifs 4 (Homo sapiens, UniProt O75173); test: Inhibition of human Aggrecanase 1
Chain of A disintegrin and metalloproteinase with thrombospondin motifs 4 (O75173 whole entry): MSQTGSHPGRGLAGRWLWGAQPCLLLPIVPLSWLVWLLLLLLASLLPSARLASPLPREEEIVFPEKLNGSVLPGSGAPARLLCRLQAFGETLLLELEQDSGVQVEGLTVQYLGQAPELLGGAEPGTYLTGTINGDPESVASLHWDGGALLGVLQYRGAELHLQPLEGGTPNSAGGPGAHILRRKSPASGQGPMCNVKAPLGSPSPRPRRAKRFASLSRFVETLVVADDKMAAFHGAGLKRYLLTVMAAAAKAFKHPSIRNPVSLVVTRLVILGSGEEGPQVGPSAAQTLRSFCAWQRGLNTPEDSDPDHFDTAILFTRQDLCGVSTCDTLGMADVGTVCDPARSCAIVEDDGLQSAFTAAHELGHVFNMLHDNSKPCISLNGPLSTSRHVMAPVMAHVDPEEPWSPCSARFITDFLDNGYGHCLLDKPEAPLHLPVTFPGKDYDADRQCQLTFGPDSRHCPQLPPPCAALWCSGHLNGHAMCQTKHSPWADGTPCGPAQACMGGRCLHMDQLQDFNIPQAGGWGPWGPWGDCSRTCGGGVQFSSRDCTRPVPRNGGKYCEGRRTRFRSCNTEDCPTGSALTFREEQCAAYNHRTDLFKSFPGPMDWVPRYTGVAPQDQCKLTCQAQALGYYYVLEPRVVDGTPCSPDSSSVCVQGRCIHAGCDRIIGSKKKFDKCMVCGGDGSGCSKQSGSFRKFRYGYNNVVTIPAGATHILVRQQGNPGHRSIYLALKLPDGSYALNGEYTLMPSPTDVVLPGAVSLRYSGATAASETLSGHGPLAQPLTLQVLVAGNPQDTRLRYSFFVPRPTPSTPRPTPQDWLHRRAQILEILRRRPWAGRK

[17] = Half life in C57BL/6 mouse at 10 mg/kg, po; format: ADME, organism-based; design: dose 10 mg/kg, route oral; conditions: in vivo
[18] = molecular target: Matrix metalloproteinase-14 (Homo sapiens, UniProt P50281); test: Inhibition of human MMP14
Interstitial collagenase = Interstitial collagenase (Homo sapiens, UniProt P03956); test: Inhibition of human MMP1
[19] = Volume of distribution at steady state in C57BL/6 mouse at 2 mg/kg, iv; format: ADME, organism-based; design: dose 2 mg/kg, route intravenous; conditions: in vivo, read-out: Vdss
[20] = molecular target: A disintegrin and metalloproteinase with thrombospondin motifs 5 (Homo sapiens, UniProt Q9UNA0); test: Inhibition of human Aggrecanase 2
[21] = molecular target: Macrophage metalloelastase (Mus musculus, UniProt P34960); test: Inhibition of mouse MMP12
Chain of Macrophage metalloelastase (Mus musculus, UniProt P34960) (P34960 whole entry): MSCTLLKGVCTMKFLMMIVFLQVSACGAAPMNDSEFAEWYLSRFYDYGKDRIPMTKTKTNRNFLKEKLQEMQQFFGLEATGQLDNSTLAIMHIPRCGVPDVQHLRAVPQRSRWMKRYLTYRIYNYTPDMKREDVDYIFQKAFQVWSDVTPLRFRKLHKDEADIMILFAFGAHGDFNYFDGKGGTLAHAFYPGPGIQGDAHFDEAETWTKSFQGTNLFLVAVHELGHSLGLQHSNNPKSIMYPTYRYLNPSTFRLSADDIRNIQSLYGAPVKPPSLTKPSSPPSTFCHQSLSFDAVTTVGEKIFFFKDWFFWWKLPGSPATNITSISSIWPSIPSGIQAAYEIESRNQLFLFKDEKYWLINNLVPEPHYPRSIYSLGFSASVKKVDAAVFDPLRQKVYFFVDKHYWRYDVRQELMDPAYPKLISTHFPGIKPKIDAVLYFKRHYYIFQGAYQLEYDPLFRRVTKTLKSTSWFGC

[22] = Metabolic stability in C57BL/6 mouse liver microsome assessed as half life; format: ADME; conditions: liver microsomes
[23] = Oral bioavailability in C57BL/6 mouse at 10 mg/kg; format: ADME, organism-based; conditions: in vivo

SMILES: CC(C)[C@H](NS(=O)(=O)c1ccc2c(c1)oc1ccc(N3CCOC3=O)cc12)C(=O)O
- inhibition in vivo at 10 mg/kg (Mus musculus [1]): 35.1%
- inhibition (Ovis aries [2]): Active
- IC50 (Stromelysin-1): 300 nM
- IC50 [3]: 2 nM
- half-life (in vitro [4]): > 30 min
- IC50 (Matrilysin): 7830 nM
- inhibition (INH) (Cytochrome P450 2C9): Not Active
- inhibition (INH) (Cytochrome P450 2D6): Not Active
- IC50 [5]: 318 nM
- IC50 [6]: 40000 nM
- IC50 [7]: 66 nM
- inhibition (Ovis aries [8]): Active
- half-life (in vitro [9]): > 30 min
- inhibition (INH) [10]: Not Active
- IC50 [11]: 72 nM
- IC50 (Collagenase 3): 106 nM
- clearance [12]: 18 mL/min/kg
- inhibition in vivo at 30 mg/kg (Mus musculus [13]): 40.3%
- inhibition in vivo at 3 mg/kg (Mus musculus [14]): 25.2%
- Cmax [15]: 456 ng/mL
- inhibition (INH) (Cytochrome P450 3A4): Not Active
- IC50 (Neutrophil collagenase): 37 nM
- IC50 [16]: 18000 nM
- half-life [17]: 186 min
- IC50 [18]: 2250 nM
- IC50 (Interstitial collagenase): 5460 nM
- Vd [19]: 0.8 L/kg
- IC50 [20]: 22600 nM
- IC50 [21]: 27 nM
- half-life [22]: > 30 min
- bioavailability [23]: 17%
